Experimental data reported in ChEMBL document CHEMBL2074175, “Transport of cyclic nucleotides and estradiol 17-beta-D-glucuronide by multidrug resistance protein 4. Resistance to 6-mercaptopurine and 6-thioguanine” (J Biol Chem, 2001).

Columns and labels:
MRP4 (ABCC4) = target: T1, MRP4 (ABCC4) (Homo sapiens, UniProt O15439); assay: TP_TRANSPORTER: inhibition of E217betaG uptake (E217betaG: 1 uM, MTX: 300 uM) in membrane vesicles from MRP4-expressing Sf9 cells; type: functional, cell membranes, Membrane vesicle; parameters: scale not given: the % may be the effect or the level left; settings: probe E217betaG (estradiol 17beta-glucuronide), read-out: Activity
T1 sequence (O15439 whole entry): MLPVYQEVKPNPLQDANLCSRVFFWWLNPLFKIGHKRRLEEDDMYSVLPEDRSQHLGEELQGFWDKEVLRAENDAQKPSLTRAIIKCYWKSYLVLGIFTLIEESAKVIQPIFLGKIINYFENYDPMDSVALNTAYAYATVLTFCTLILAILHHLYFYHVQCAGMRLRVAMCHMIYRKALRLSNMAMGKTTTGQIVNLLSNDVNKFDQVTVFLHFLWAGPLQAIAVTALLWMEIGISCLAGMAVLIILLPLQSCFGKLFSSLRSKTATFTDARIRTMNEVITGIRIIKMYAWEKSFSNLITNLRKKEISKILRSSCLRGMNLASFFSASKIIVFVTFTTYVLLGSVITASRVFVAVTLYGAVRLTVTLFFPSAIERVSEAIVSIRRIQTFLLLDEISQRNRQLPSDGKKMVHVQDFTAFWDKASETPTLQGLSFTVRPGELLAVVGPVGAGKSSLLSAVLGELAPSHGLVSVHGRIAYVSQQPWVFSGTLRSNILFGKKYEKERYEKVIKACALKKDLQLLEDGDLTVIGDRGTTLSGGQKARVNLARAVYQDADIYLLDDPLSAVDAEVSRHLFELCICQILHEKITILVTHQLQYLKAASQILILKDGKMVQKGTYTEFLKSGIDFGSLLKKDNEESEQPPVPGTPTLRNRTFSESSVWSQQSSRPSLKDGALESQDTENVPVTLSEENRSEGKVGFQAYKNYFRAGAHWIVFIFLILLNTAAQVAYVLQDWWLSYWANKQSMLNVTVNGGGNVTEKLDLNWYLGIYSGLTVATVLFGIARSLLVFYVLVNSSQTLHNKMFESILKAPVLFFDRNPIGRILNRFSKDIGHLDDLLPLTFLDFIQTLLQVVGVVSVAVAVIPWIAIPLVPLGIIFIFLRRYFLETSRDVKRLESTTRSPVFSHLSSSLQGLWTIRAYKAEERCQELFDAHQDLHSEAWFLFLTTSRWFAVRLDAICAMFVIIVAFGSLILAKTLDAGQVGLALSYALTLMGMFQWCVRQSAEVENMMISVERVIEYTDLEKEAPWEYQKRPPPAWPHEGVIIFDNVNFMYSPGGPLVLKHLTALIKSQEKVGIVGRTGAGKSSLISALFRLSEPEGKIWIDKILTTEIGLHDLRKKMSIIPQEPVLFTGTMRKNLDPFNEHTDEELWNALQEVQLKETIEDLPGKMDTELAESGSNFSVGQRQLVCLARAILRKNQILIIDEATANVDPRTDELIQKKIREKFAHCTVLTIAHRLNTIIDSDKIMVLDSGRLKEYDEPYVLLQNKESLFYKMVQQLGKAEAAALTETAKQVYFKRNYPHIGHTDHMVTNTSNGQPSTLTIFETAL

[1] = target: T2, ATP-binding cassette sub-family C member 4 (Homo sapiens, UniProt O15439); assay: TP_TRANSPORTER: inhibition of E217betaG uptake (E217betaG: 1 uM, cGMP: 300 uM) in membrane vesicles from MRP4-expressing Sf9 cells; type: functional, cell membranes, Membrane vesicle; parameters: scale not given: the % may be the effect or the level left; settings: sf9, 300 µM
T2 sequence (O15439 whole entry): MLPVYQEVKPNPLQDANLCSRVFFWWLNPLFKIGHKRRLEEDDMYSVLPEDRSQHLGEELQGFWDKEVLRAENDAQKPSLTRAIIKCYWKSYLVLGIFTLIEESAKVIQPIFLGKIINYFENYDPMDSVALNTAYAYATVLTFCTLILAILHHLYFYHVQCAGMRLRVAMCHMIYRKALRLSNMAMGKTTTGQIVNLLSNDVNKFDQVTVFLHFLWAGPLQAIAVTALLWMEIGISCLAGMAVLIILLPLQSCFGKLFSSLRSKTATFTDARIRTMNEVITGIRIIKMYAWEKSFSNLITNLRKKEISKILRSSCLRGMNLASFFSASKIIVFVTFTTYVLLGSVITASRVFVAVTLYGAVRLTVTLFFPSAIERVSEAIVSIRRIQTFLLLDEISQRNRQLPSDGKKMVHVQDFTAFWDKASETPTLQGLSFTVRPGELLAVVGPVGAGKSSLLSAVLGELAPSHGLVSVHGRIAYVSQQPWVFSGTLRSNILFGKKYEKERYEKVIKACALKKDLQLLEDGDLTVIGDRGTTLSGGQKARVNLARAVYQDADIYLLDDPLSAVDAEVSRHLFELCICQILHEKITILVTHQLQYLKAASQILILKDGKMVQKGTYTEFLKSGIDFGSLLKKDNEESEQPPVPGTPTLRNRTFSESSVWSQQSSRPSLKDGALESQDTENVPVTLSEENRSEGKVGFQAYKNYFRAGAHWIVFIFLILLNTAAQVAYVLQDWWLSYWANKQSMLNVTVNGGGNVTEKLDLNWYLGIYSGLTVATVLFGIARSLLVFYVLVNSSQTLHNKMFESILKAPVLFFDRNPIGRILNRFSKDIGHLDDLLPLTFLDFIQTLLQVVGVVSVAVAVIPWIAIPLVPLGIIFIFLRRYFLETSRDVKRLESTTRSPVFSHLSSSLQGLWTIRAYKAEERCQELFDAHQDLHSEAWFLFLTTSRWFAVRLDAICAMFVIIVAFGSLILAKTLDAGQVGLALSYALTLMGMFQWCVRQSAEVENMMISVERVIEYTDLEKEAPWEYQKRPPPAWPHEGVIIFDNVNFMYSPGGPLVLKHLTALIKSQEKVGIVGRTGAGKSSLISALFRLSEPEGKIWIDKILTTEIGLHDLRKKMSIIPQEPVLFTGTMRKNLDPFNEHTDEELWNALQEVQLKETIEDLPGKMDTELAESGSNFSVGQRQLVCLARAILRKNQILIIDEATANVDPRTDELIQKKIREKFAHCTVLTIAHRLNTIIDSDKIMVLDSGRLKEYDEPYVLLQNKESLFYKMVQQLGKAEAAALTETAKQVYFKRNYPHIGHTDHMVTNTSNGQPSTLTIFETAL

[2] = target: T2, ATP-binding cassette sub-family C member 4; assay: TP_TRANSPORTER: efflux in MRP4-expressing NIH3T3 cells; type: functional, cell-based; settings: mouse
[3] = substrate: [H][C@@]12COP(=O)(O)O[C@@]1([H])[C@@H](O)[C@H](n1cnc3c(=O)[nH]c(N)nc31)O2; assay: (§1) TP_TRANSPORTER: uptake in membrane vesicles from MRP4-expressing Sf9 cells; type: functional, cell membranes, Membrane vesicle
[4] = substrate: C[C@]12CC[C@@H]3c4ccc(O)cc4CC[C@H]3[C@@H]1CC[C@@H]2O[C@@H]1O[C@H](C(=O)O)[C@@H](O)[C@H](O)[C@H]1O; assay: as §1; type: functional, cell membranes, Membrane vesicle

`CN(Cc1cnc2nc(N)nc(N)c2n1)c1ccc(C(=O)N[C@@H](CCC(=O)O)C(=O)O)cc1` [METHOTREXATE] showed an activity at 300 µM (MRP4 (ABCC4)) of 40.3%.

Molecule `Nc1nc2c(ncn2[C@@H]2O[C@@H]3COP(=O)(O)O[C@H]3[C@H]2O)c(=O)[nH]1` has an Activity [1] of 16.2%.

With `Sc1ncnc2nc[nH]c12` [MERCAPTOPURINE ANHYDROUS] the Activity [2] was “substrate [+]”.

B1: ATP-binding cassette sub-family C member 4 (Homo sapiens) (protein)
chain: MLPVYQEVKPNPLQDANLCSRVFFWWLNPLFKIGHKRRLEEDDMYSVLPEDRSQHLGEELQGFWDKEVLRAENDAQKPSLTRAIIKCYWKSYLVLGIFTLIEESAKVIQPIFLGKIINYFENYDPMDSVALNTAYAYATVLTFCTLILAILHHLYFYHVQCAGMRLRVAMCHMIYRKALRLSNMAMGKTTTGQIVNLLSNDVNKFDQVTVFLHFLWAGPLQAIAVTALLWMEIGISCLAGMAVLIILLPLQSCFGKLFSSLRSKTATFTDARIRTMNEVITGIRIIKMYAWEKSFSNLITNLRKKEISKILRSSCLRGMNLASFFSASKIIVFVTFTTYVLLGSVITASRVFVAVTLYGAVRLTVTLFFPSAIERVSEAIVSIRRIQTFLLLDEISQRNRQLPSDGKKMVHVQDFTAFWDKASETPTLQGLSFTVRPGELLAVVGPVGAGKSSLLSAVLGELAPSHGLVSVHGRIAYVSQQPWVFSGTLRSNILFGKKYEKERYEKVIKACALKKDLQLLEDGDLTVIGDRGTTLSGGQKARVNLARAVYQDADIYLLDDPLSAVDAEVSRHLFELCICQILHEKITILVTHQLQYLKAASQILILKDGKMVQKGTYTEFLKSGIDFGSLLKKDNEESEQPPVPGTPTLRNRTFSESSVWSQQSSRPSLKDGALESQDTENVPVTLSEENRSEGKVGFQAYKNYFRAGAHWIVFIFLILLNTAAQVAYVLQDWWLSYWANKQSMLNVTVNGGGNVTEKLDLNWYLGIYSGLTVATVLFGIARSLLVFYVLVNSSQTLHNKMFESILKAPVLFFDRNPIGRILNRFSKDIGHLDDLLPLTFLDFIQTLLQVVGVVSVAVAVIPWIAIPLVPLGIIFIFLRRYFLETSRDVKRLESTTRSPVFSHLSSSLQGLWTIRAYKAEERCQELFDAHQDLHSEAWFLFLTTSRWFAVRLDAICAMFVIIVAFGSLILAKTLDAGQVGLALSYALTLMGMFQWCVRQSAEVENMMISVERVIEYTDLEKEAPWEYQKRPPPAWPHEGVIIFDNVNFMYSPGGPLVLKHLTALIKSQEKVGIVGRTGAGKSSLISALFRLSEPEGKIWIDKILTTEIGLHDLRKKMSIIPQEPVLFTGTMRKNLDPFNEHTDEELWNALQEVQLKETIEDLPGKMDTELAESGSNFSVGQRQLVCLARAILRKNQILIIDEATANVDPRTDELIQKKIREKFAHCTVLTIAHRLNTIIDSDKIMVLDSGRLKEYDEPYVLLQNKESLFYKMVQQLGKAEAAALTETAKQVYFKRNYPHIGHTDHMVTNTSNGQPSTLTIFETAL
B1 gave a Km [3] of 9.69 µM and a Km [4] of 30.3 µM.
